Where “and” joins values, the source holds several entries; their conditions need not be identical. Equal values may be shown once.
Tests used:
[1] = system: WT mice; experiment: In vivo telemetric ECG recording in WT (normal) mice; set-up: species or system mouse; conditions: 20 mg/kg IP
Excerpt: (§1) Telemetric ambulatory long-term ECG recordings, analogous to Holter monitoring in humans, were obtained with implantable transmitters. […] An implantable 3.5 grams wireless radiofrequency transmitter (DSI MM USA, device weight 3.8 grams) was aseptically inserted into a subcutaneous tissue pocket in the back as described in Katz, G., et al. Heart Rhythm 7, 1676-1682 (2010) and Kurtzwald-Josefson, E., et al. Heart Rhythm 11, 1471-1479 (2014)]. Animals were allowed to recover after surgery for at least 24 hours before any experiments. Baseline electrocardiograms (ECG) were obtained 15 minutes after IP injection of the appropriate vehicle (peanut oil or peanut oil supplemented with ethanol 1%). […] Telemetered ECG tracings were obtained in conscious mice at rest for one minute and during peak exercise (i.e. the first minute of recovery). In the treadmill exercise, mice were forced to exercise on a rodent treadmill; gradually increasing the speed up to a maximum of 15 m/minute. Ventricular tachycardia (VT) was defined as four or more consecutive ventricular beats. If this phenotype was consecutively observed for more than 15 seconds, it was defined as “sustained” ventricular tachycardia (SVT). Shorter VTs were characterized as “non-sustained” (NSVT). All other ventricular arrhythmias, such as premature beats, ventricular bigeminy, couplets and triplets were all defined as ventricular premature contractions (VPCs).
(§2) For this, a heart telemetry device was implanted in norma mice for continuous ECG recording at rest and during treadmill exercise. For each session, continuous ECG recording was performed with the same animals receiving first intraperitoneal (IP) injection of vehicle (peanut oil) and then 20 mg/kg clotrimazole.
as §2, with “A” for “For this, a”, “WT, CASQ2-D307H KI and CASQ2 KO” for “norma”, “the SK4 channel blocker.” for “20 mg/kg clotrimazole.”

[2] = system: CASQ2-D307H KI mice; experiment: In vivo telemetric ECG recording in CASQ2-D307H KI mice; set-up: species or system mouse; conditions: 20 mg/kg IP; for number of mice, most severe ECG form: NSVT / number of mice, most severe ECG form: Normal (sinusal rhythm) / number of mice, most severe ECG form: SVT / number of mice, most severe ECG form: VPC: n=5 Clotrimazole, n=12 TRAM-34
Excerpt: as §1
as §2, with “A” for “For this, a”, “WT, CASQ2-D307H KI and CASQ2 KO” for “norma”, “the SK4 channel blocker.” for “20 mg/kg clotrimazole.”
(§3) The types of arrhythmic features were classified following their seriousness: sinusal rhythm (normal), ventricular premature contractions (VPC), non-sustained ventricular tachycardia (NSVT) and sustained ventricular tachycardia (SVT). For each mouse was considered the most severe form of arrhythmia recorded under ECG.

[3] = molecular target: T1, SK4 current (Homo sapiens, UniProt O15554); conditions: 2 μM clotrimazole added to solution 1; voltage ramp −90 to +40 mV; cited from earlier work
T1 construct: electrophysiological characterization of the SK4 current in a single cardiac hESC-CM; endogenous in cells; host or cells: hESC-CMs (human embryonic stem cell-derived cardiomyocytes)

[4] = system: CASQ2 KO mice; experiment: In vivo telemetric ECG recording in CASQ2 KO mice; set-up: species or system mouse; conditions: 20 mg/kg IP; for number of mice, most severe ECG form: NSVT / number of mice, most severe ECG form: Normal (sinusal rhythm) / number of mice, most severe ECG form: SVT / number of mice, most severe ECG form: VPC: n=6
Excerpt: as §1
as §2, with “A” for “For this, a”, “WT, CASQ2-D307H KI and CASQ2 KO” for “norma”, “the SK4 channel blocker.” for “20 mg/kg clotrimazole.”
as §3

[5] = system: hESC-CMs; conditions: 2 μM clotrimazole, current clamp; cited from earlier work
[6] = system: SAN cells; experiment: Spontaneous APs / pacing rate of isolated SAN cells from WT mice (patch clamp); assay type: cell-based, mouse
Method: (§4) WT and CASQ2 D307H KI mice were anesthetized with isofluorane and sacrificed by cervical dislocation. The heart was rapidly removed and transferred into Tyrode solution containing heparin. […] The area was cleaned, cut into small strips and washed into a Low Calcium Solution, containing (in mM): 140 NaCl, 5.4 KCl, 0.5 MgCl2, 1.2 KH2PO4, 5 HEPES-NaOH, 50 taurine, 5.5 glucose (pH 6.9). The osmolarity was adjusted if needed to 315 mOsm.
The same solution, supplemented with 1 mg/ml albumin, 200 μM CaCl2, collagenase Type I (Worthington) or liberase TH (Roche), protease (Sigma) and elastase (Sigma) was used for enzymatic digestion as previously described [See, Mesirca, P., et al. Nat Commun 5, 4664 (2014)]. In this step, the tissue was gently resuspended with a polished Pasteur pipette in this solution for 9-13 minutes at 37° C. SAN samples were then washed three times in a modified “Kraftbrühe” solution, containing (in mM): 70 glutamic acid, 80 KOH, 20 KCl, 10 γ-Hydroxybutyric acid sodium salt, 10 KH2PO4, 10 HEPES-KOH, 10 taurine, 1 mg/ml albumin, 0.1 EGTA-KOH (pH 7.2). The same solution was used to re-suspend the single cells with a pipet by vigorous up and down, between 3 to 5 minutes at 37° C. Cells were then gradually exposed to increasing concentrations of calcium, following a “Ca^2+ readaptation” protocol [Mesirca et al., 2014, supra]. Experiments were performed the same day at 33° C.
(§5) In all experiments, the coverslips were perfused at 33° C. with an external solution containing (in mM): 140 NaCl, 4 KCl, 11 Glucose, 1.2 MgCl2, 1.8 CaCl2, 5.5 HEPES titrated to pH 7.4 with NaOH and adjusted at 320 mOsm with sucrose.
The spontaneous automaticity of isolated SAN cells was recorded under perforated-patch conditions by adding 30 μM β-escin49 to the intracellular solution containing (in mM): 130 KCl, 10 NaCl, 10 HEPES, 0.2 EGTA-KOH, 2 MgATP, 6.6 Phosphocreatine, 0.05 cAMP and 1 μM free Ca^2+ (pH 7.2). To record SK4 K+ current, a voltage ramp protocol was applied. SAN and hiPS-CMs were held at −40 mV and −20 mV, respectively to substantially inactivate voltage-gated Na^+ and Ca^2+ currents. Cells were stepped from −90 mV to +60 mV for 150 ms. Then, a cocktail (solution 1) containing (in mM) 0.3 cadmium, 0.025 ZD-7288 and 0.01 E-4031 was applied extracellularly to inhibit residual L-type and T-type voltage-gated Ca2+ currents, If and the IKr currents, respectively. […] For voltage-clamp recording of SAN cells, the intracellular solution was the same to that described above for recording spontaneous automaticity.
The spontaneous electric activity of the cell was recorded in the current clamp configuration of the patch clamp technique before (black trace) and during (violet trace) exposure to 2 μM clotrimazole.
FIG. 5E (Left) presents representative traces of spontaneous APs recorded in single SAN cell from WT mice.

[7] = system: normal hiPSC-CMs; experiment: Spontaneous APs in hiPS-CMs derived from normal individuals; assay type: cell-based, human; conditions: 3 μM isoproterenol
Method: as §5
FIG. 4E (Left) presents representative traces of spontaneous APs recorded in hiPS-CM derived from a normal individual. […] FIG. 4E (Right) are bar graphs presenting data summary of pacing rate (normalized to Ctrl; one-way ANOVA **P=0.0071, n=14), DD slope (paired t-test, ***P<0.0001, n=14) and APD50 (one-way ANOVA *P=0.0243, n=18).

[8] = system: SAN cells from CASQ2-D307H KI mice; experiment: Spontaneous APs and DADs of isolated SAN cells from CASQ2 D307H KI mice; assay type: cell-based, mouse; conditions: 50 nM isoproterenol, after 1-2 minutes
Method: as §4
The same solution, supplemented with 1 mg/ml albumin, 200 μM CaCl2, collagenase Type I (Worthington) or liberase TH (Roche), protease (Sigma) and elastase (Sigma) was used for enzymatic digestion as previously described [See, Mesirca, P., et al. Nat Commun 5, 4664 (2014)]. In this step, the tissue was gently resuspended with a polished Pasteur pipette in this solution for 9-13 minutes at 37° C. SAN samples were then washed three times in a modified “Kraftbrühe” solution, containing (in mM): 70 glutamic acid, 80 KOH, 20 KCl, 10 γ-Hydroxybutyric acid sodium salt, 10 KH2PO4, 10 HEPES-KOH, 10 taurine, 1 mg/ml albumin, 0.1 EGTA-KOH (pH 7.2). […] Cells were then gradually exposed to increasing concentrations of calcium, following a “Ca^2+ readaptation” protocol [Mesirca et al., 2014, supra]. […]
FIG. 5F (Left) presents representative traces of spontaneous APs recorded in single SAN cell from CASQ2 D307H KI mice. […]

[9] = system: intact SAN from CASQ2 D307H KI mice; experiment: Spontaneous calcium transients ex vivo in intact SAN tissue from CASQ2-D307H KI mice (Fluo-4 AM); assay type: cell-based, mouse; conditions: 100 nM isoproterenol
Method: (§6) SAN tissue preparations were dissected ex vivo from WT and CASQ2-D307H KI mice as described in Torrente, A. G., et al. Proc Natl Acad Sci USA 112, 9769-9774 (2015). The dissected whole SAN tissue was pinned on a hand-made chamber and was incubated in a Tyrode solution containing 10 μM Fluo-4 AM (Thermo Fisher Scientific) and pluronic acid for 1 hour at 37° C. in the dark. The SAN tissue was washed in Tyrode at 37° C. in the dark for 10 minutes before experiments. Fluorescence of calcium transients was recorded using a photomultiplier (PTi D-104) at 35° C. and the analog signals were digitized using Digidata 1440 (Molecular Devices) and analyzed with pCLAMP 10.5 software.
(§7) To investigate the spontaneous calcium transients of the SAN, intact SAN tissue preparations dissected ex vivo from WT and CASQ2-D307H KI mice were exposed to Fluo-4 AM as previously described [Torrente, A. G., et al. Proc Natl Acad Sci USA 112, 9769-9774 (2015)].
FIG. 6B presents representative traces of different types of calcium transient abnormalities recorded in intact SAN from CASQ2 D307H KI mice, termed as “local Ca^2+ release” (upper left), “double humped transients” (upper right), “large-stored released Ca^2+ waves” (lower left) and “calcium alternans” (lower right).
FIG. 6C presents representative trace of spontaneous calcium transients recorded from intact SAN of CASQ2 D307H KI. The baseline rate of calcium transients (control, black trace) yielded chaotic calcium transients (red trace) following incubation of the SAN with 100 nM isoproterenol.

[10] = system: CPVT2 hiPSC-CMs; experiment: Spontaneous APs and DADs in hiPS-CMs derived from CPVT2 (CASQ2 D307H) patients; assay type: cell-based, human; conditions: 3 μM isoproterenol
Method: as §5
FIG. 4F (Left) presents representative traces of spontaneous APs recorded in hiPS-CM derived from a CPVT2 (CASQ2 D307H) patients. From a regular pacing (black trace), DADs appeared when the cell was exposed to 3 μM isoproterenol (red trace, arrows). […] The suppression of cell 540 automaticity was reversible upon washout (blue trace). FIG. 4F (Right) present bar graphs showing data summary of pacing rate (n=17), on APD50 (n=17) and DADs (Normalized to Ctrl; one-way ANOVA***P=0.0001, n=15).

[11] = system: intact SAN tissue preparations from WT mice; experiment: Spontaneous calcium transients ex vivo in intact SAN tissue from WT mice (Fluo-4 AM); assay type: cell-based, mouse; conditions: 100 nM isoproterenol
Method: as §6, §7
FIG. 6A (Left) presents representative traces of spontaneous calcium transients recorded ex vivo in intact SAN tissue preparations from WT mice. […] Right: data summary of calcium transient rate (one-way-ANOVA***P=0.0003; n=12).

T1 sequence (O15554 whole entry): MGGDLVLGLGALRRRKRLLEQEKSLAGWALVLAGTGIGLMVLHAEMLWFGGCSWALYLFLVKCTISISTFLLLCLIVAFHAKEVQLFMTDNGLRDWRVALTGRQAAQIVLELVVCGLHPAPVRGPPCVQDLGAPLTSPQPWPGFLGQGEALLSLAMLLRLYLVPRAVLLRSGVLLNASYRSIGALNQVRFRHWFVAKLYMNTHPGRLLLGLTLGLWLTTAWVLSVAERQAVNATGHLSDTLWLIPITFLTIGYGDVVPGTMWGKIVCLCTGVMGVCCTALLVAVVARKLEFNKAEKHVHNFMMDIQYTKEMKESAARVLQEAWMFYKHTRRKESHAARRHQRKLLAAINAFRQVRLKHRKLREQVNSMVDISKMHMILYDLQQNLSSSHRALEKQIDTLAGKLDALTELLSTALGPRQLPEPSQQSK

Clc1ccccc1C(c1ccccc1)(c1ccccc1)n1ccnc1 [Clotrimazole]
prolongation of the PR interval ([1]; WT mice at rest): 27%
reduction of resting heart rate ([1]; WT mice at rest, vs vehicle in same animal): 16.1±6.1% and 16±6%
PR interval ([1]; normal mice at rest, n=10 (vehicle 29.4±0.9)): 37.0 ± 3.5 ms
resting heart rate ([1]; normal mice at rest, n=10 (vehicle 718±16)): 604±43 bpm
sinus rate (heart rate) ([1]; normal mice during treadmill exercise, n=10 (vehicle 724±18)): 605±42 bpm
PR interval ([1]; normal mice following treadmill exercise, n=10 (vehicle 29.27±0.94), not significant): 37.44 ± 4.03 ms
mice converted to normal sinus rhythm ([2]; KI mice at rest): 3 out of 5
heart rate and PR interval ([2]; KI mice, basal conditions and during treadmill exercise): bradycardia and PR prolongation were noticed
number of mice, most severe ECG form: NSVT ([2]; KI at rest): 0
number of mice, most severe ECG form: Normal (sinusal rhythm) ([2]; KI at rest): 3
number of mice, most severe ECG form: SVT ([2]; KI at rest): 0
number of mice, most severe ECG form: VPC ([2]; KI at rest): 2
number of mice, most severe ECG form: NSVT ([2]; KI during Exercise): 2
number of mice, most severe ECG form: Normal (sinusal rhythm) ([2]; KI during Exercise): 0
number of mice, most severe ECG form: SVT ([2]; KI during Exercise): 1
number of mice, most severe ECG form: VPC ([2]; KI during Exercise): 2
clotrimazole-sensitive/SK4 current (linear voltage trace) [3]: decreased the linear voltage trace in both sides
heart rate and PR interval ([4]; KO mice, basal conditions and during treadmill exercise): bradycardia and PR prolongation were noticed
number of mice, most severe ECG form: NSVT ([4]; KO at rest): 0
number of mice, most severe ECG form: Normal (sinusal rhythm) ([4]; KO at rest): 4
number of mice, most severe ECG form: SVT ([4]; KO at rest): 0
number of mice, most severe ECG form: VPC ([4]; KO at rest): 2
number of mice, most severe ECG form: NSVT ([4]; KO during exercise): 3
number of mice, most severe ECG form: Normal (sinusal rhythm) ([4]; KO during exercise): 0
number of mice, most severe ECG form: SVT ([4]; KO during exercise): 1
number of mice, most severe ECG form: VPC ([4]; KO during exercise): 2
duration of the action potentials (APD50) [5]: did not significantly affect
firing rate [5]: decreased the firing rate of the cells
membrane potential (MDP) / pacing [5]: depolarized the membrane of the cell (MDP) until a pacing arrest
firing rate ([6]; 2 μM clotrimazole, current clamp, reversible during washout): strongly decreases the firing rate of the cells

CC(C)NCC(O)c1ccc(O)c(O)c1 (centres unmarked) [Isoproterenol]
APD50 [7]: reduced their APD50
firing rate [7]: significantly increased their firing rate
DADs [8]: led to DADs
Ca2+ transient abnormalities [9]: produced various Ca^2+ transient abnormalities
DADs [10]: triggered DADs
chronotropic effect [10]: did not produce positive chronotropic effect
rate of calcium transients [11]: significantly increased
pacing of SAN cells ([6]; 50 nM isoproterenol): significantly increased the pacing
